Test results: patent publication US20230312576A1, “4-(7H-PYRROLO[2,3-D]PYRIMIDIN-4-YL)-3,6-DIHYDROPYRIDINE-1-(2H)-CARBOXAMIDE DERIVATIVES AS LIMK AND/OR ROCK KINASES INHIBITORS FOR USE IN THE TREATMENT OF CANCER” (CENTRE NATIONAL DE LA RECHERCHE SCIENTIFIQUE, priority 2020, published 2023)
pEC50, pKi: −log10 of the molar value. Like-named read-outs stand apart in the source and are kept apart here.

Columns and labels:
LIMK1 = LIMK1 (Homo sapiens (Human), UniProt P53667); test: Lanthascreen Eu binding assay (TR-FRET), inhibition of LIMK1
[1] = test system: cofilin phosphorylation, MPNST88-14 cells; test: Cofilin phosphorylation by Western Blot in MPNST88-14 cells; format: cell-based
ROCK2 = ROCK2 (Homo sapiens (Human), UniProt O75116); test: Z'Lyte assay, ROCK2 inhibition at a single concentration; format: biochemical
[2] = test system: cofilin phosphorylation, HeLa cells; test: Cofilin phosphorylation by Western Blot (anti-phospho-Ser3-cofilin) in HeLa cells; format: cell-based; conditions: for inhibition at 25 µM: Homo sapiens; for inhibition at 25 µM / % inhibition Cofilin phosphorylation HeLa cells treated 2 h with 25 uM of inhibitor: 2 h
[3] = test system: cofilin phosphorylation, MPNST90-8 cells; test: Cofilin phosphorylation by Western Blot in MPNST90-8 cells; format: cell-based; conditions: for inhibition at 25 µM: read-out: % inhibition Cofilin phosphorylation MPNST90-8 cells treated 2 h with 25 uM of inhibitor, MPNST90-8 cells, 25 uM
LIMK2 = LIMK2 (Homo sapiens (Human), UniProt P53671); test: Lanthascreen Eu binding assay (TR-FRET), inhibition of LIMK2
ROCK1 = ROCK1 (Homo sapiens (Human), UniProt Q13464); test: Z'Lyte assay, ROCK1 inhibition at a single concentration; format: biochemical
[4] = test system: SOD1-G93A transgenic mice; test: In vivo assay on a mouse model of ALS; conditions: 10 mg/Kg intraperitoneal, 2 times a week from week 8
HeLa cells = test: Cytotoxicity, CellTiter-Glo Luminescent Cell Viability assay, HeLa; format: cell-based; conditions: 48 hours, read-out: EC50 (inhibitor concentration corresponding to half of live cells)
LIMK1 and LIMK2 = test: Lanthascreen Eu binding assay, Ki without LIMK isoform; conditions: LIMK isoform not stated
[5] = read-out: % inhibition Cofilin phosphorylation MPNST88-14 cells treated 2 h with 25 uM of inhibitor, MPNST88-14 cells, 25 uM
[6] = read-out: % inhibition (ROCK2) 1 uM, 1 uM
[7] = HeLa, read-out: % inhibition of cofilin phosphorylation in HeLa cells (treatment 2 h, at 25 μM), Table 2, normalized to the control condition DMSO
[8] = read-out: % inhibition Cofilin phosphorylation HeLa cells treated 2 h with 25 uM of inhibitor, HeLa cells, 25 uM
[9] = read-out: % inhibition (ROCK1) 1 uM, 1 uM
[10] = 2 h, read-out: % inhibition Cofilin phosphorylation MPNST88-14 cells treated 2 h with 25 uM of inhibitor
[11] = read-out: % inhibition (ROCK2) 1 uM
[12] = HeLa, read-out: % inhibition Cofilin phosphorylation HeLa cells treated 2 h with 25 uM of inhibitor
[13] = HeLa, read-out: % inhibition of cofilin phosphorylation in HeLa cells (treatment 2 h, at 25 μM)
[14] = read-out: % inhibition (ROCK1) 1 uM
[15] = Table 2, normalized to the control condition DMSO

Chain of ROCK2 (O75116 whole entry): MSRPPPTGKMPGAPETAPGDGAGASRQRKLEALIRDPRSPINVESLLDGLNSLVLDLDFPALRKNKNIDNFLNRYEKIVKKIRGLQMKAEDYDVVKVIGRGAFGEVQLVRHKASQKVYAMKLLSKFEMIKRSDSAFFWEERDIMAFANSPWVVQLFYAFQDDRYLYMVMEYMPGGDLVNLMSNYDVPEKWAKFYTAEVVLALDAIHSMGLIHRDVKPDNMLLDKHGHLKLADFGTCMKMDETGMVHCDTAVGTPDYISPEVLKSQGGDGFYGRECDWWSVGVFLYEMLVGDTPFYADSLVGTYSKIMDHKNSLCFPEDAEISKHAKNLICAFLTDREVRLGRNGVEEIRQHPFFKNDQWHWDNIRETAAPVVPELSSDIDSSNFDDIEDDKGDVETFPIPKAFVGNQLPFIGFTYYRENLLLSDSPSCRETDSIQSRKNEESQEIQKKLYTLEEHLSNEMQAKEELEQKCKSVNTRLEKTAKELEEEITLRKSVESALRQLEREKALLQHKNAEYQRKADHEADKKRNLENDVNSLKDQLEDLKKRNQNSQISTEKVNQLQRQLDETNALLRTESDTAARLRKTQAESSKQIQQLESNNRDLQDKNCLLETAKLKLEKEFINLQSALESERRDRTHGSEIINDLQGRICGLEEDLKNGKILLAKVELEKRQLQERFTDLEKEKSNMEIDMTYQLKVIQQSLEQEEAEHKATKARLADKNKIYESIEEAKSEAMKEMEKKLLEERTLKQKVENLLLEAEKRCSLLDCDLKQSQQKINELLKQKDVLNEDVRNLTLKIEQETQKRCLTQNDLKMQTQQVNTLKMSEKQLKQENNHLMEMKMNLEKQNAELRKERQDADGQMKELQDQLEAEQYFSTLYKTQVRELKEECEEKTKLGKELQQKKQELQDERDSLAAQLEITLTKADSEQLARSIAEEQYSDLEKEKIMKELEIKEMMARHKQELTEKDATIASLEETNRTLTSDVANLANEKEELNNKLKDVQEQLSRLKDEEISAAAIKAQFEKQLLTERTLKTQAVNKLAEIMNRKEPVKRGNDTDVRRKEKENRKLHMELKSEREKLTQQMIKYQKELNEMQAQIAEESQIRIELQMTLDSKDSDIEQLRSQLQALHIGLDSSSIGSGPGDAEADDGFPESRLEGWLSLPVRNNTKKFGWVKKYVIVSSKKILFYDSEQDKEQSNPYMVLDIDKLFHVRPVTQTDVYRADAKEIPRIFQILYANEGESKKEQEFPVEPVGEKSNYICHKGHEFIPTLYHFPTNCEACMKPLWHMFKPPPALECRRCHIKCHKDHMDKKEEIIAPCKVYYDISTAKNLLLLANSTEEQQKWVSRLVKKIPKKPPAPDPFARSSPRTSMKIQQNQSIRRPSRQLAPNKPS
Chain of ROCK1 (Q13464 whole entry): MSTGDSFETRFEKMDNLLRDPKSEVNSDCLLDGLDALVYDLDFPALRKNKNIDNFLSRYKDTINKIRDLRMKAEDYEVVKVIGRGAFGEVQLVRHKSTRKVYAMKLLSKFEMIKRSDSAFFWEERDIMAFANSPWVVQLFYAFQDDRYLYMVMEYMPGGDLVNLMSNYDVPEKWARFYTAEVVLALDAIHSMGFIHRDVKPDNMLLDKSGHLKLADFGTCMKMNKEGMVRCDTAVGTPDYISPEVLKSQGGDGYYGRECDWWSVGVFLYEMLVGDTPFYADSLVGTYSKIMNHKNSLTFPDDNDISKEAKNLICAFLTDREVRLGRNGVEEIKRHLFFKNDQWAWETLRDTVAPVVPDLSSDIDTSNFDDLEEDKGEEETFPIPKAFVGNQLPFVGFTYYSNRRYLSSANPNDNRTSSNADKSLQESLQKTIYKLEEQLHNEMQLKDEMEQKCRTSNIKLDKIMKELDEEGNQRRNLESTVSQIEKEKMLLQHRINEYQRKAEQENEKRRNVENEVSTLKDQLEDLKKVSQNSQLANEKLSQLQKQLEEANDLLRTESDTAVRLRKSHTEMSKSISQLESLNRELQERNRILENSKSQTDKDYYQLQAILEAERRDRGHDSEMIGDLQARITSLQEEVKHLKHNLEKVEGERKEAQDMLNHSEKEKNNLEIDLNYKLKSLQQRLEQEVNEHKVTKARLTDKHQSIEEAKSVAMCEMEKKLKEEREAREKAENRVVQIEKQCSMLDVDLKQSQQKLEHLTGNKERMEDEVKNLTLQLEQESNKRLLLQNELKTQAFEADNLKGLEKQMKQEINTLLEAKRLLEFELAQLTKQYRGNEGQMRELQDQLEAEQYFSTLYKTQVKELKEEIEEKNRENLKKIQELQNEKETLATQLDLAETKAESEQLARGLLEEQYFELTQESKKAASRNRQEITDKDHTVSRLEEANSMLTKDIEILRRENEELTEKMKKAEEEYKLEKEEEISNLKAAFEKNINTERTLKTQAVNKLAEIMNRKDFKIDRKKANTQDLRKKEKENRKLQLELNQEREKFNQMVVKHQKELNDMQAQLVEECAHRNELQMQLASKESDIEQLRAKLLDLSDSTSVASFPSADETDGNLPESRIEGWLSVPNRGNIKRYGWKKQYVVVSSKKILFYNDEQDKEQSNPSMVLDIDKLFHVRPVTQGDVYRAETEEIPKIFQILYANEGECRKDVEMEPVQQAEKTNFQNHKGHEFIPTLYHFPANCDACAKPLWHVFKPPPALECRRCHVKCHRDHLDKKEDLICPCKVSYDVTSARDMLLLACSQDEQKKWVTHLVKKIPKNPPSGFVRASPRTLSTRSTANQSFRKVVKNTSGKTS
Chain of LIMK2 (P53671 whole entry): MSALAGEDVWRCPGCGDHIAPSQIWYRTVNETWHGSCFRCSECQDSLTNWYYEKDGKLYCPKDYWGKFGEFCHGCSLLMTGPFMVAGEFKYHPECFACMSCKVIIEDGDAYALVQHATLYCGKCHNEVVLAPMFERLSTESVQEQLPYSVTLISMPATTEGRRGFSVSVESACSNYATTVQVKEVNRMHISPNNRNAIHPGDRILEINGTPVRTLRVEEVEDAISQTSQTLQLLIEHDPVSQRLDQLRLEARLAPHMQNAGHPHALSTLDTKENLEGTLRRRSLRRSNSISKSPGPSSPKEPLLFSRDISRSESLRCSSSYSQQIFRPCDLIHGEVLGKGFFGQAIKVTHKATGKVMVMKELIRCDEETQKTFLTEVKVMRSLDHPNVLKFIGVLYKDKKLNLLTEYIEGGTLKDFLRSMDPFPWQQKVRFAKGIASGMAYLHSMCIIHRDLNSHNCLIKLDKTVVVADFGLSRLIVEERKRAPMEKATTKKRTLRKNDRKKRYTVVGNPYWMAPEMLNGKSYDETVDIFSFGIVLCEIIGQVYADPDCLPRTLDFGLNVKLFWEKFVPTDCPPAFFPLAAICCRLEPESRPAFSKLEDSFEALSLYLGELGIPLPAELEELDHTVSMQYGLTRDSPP
Chain of LIMK1 (P53667 whole entry): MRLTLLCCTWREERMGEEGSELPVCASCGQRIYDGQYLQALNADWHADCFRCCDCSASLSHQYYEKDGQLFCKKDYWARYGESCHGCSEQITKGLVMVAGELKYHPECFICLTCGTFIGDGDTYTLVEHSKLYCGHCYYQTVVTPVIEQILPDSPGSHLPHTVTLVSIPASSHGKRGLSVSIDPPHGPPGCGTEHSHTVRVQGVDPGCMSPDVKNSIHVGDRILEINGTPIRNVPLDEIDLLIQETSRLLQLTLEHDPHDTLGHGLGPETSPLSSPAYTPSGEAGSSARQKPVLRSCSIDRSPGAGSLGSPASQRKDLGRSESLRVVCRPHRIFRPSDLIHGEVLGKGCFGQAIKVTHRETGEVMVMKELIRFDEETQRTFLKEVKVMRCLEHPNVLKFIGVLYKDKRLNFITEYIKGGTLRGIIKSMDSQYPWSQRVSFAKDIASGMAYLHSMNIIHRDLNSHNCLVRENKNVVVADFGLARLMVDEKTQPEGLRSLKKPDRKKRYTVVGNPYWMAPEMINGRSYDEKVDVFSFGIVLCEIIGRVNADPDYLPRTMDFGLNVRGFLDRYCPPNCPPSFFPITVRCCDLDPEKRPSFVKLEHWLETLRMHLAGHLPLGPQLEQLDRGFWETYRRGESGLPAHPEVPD

pKi (LIMK1; Lanthascreen Eu binding assay) | inhibition at 1 µM (ROCK2; [6]) [%] | pKi (LIMK2; Lanthascreen Eu binding assay) | inhibition at 1 µM (ROCK1; [9]) [%] | SMILES | inhibition at 25 µM [1, 5] [%] | inhibition at 25 µM [2, 7] [%] | inhibition at 25 µM [2, 8] [%] | inhibition at 1 µM (ROCK2; [11]) [%] | inhibition at 1 µM (ROCK1; [14]) [%] | further results
7.33 | 36 | 6.99 | 59 | Cc1c[nH]c2ncnc(C3=CC(C)N(C(=O)Nc4cccc(F)c4)C(C)C3)c12 (stereo not drawn) [Compound 57, N-(3-Fluorophenyl)-2,6-dimethyl-4-(5-methyl-7H-pyrrolo[2,3-d]pyrimidin-4-yl)-3,6-dihydropyridine-1(2H)-carboxamide] | 81 | 90.3 | 90.3 |  |  | inhibition at 25 µM [3]: 93.3%
 |  |  |  | Cc1c[nH]c2ncnc(C3=CC(C)N(C(=O)Nc4cccc(Cl)c4)C(C)C3)c12 (stereo not drawn) [Compound 58, N-(3-Chlorophenyl)-2,6-dimethyl-4-(5-methyl-7H-pyrrolo[2,3-d]pyrimidin-4-yl)-3,6-dihydropyridine-1(2H)-carboxamide] |  |  |  | 32 | 34 | inhibition at 25 µM [1, 10]: 77.3%; inhibition at 25 µM [2, 12]: 91.4%; inhibition at 25 µM [2, 13]: 91.4%
 |  |  |  | Cc1c[nH]c2ncnc(C3=CC(C)N(C(=O)Nc4cccc(Br)c4)C(C)C3)c12 (stereo not drawn) [Compound 59, N-(3-Bromophenyl)-2,6-dimethyl-4-(5-methyl-7H-pyrrolo[2,3-d]pyrimidin-4-yl)-3,6-dihydropyridine-1(2H)-carboxamide] |  |  |  | 40 | 34 | inhibition at 25 µM [1, 10]: 74.7%; inhibition at 25 µM [2, 12]: 93.6%; inhibition at 25 µM [2, 13]: 93.6%
 |  |  |  | Cc1c[nH]c2ncnc(C3=CC(C)N(C(=O)Nc4cccc(Oc5ccccc5)c4)C(C)C3)c12 (stereo not drawn) [Compound 60, 2,6-Dimethyl-4-(5-methyl-7H-pyrrolo[2,3-d]pyrimidin-4-yl)-N-(3-phenoxyphenyl)-3,6-dihydro pyridine-1(2H)-carboxamide] |  |  |  |  |  | % inhibition Cofilin phosphorylation MPNST88-14 cells treated 2 h with 25 uM of inhibitor ([1]; MPNST88-14 cells, 25 uM): 74.5%; % inhibition (ROCK2) 1 uM (ROCK2): 7%; % inhibition Cofilin phosphorylation HeLa cells treated 2 h with 25 uM of inhibitor ([2]; HeLa cells, 25 uM): 94.2%; % inhibition of cofilin phosphorylation in HeLa cells (treatment 2 h, at 25 μM) [2, 15]: 94.2%; % inhibition Cofilin phosphorylation MPNST90-8 cells treated 2 h with 25 uM of inhibitor [3]: 81.1%; % inhibition (ROCK1) 1 uM (ROCK1): 11%
7.54 | -2 | 7.55 | 10 | O=C(Nc1cccc(Oc2ccccc2)c1)N1CC=C(c2ncnc3[nH]c4c(c23)CCC4)CC1 [Compound 125, N-(3-Phenoxyphenyl)-4-(5,6,7,8-tetrahydrocyclopenta[4,5]pyrrolo[2,3-d]pyrimidin-4-yl)-3,6-dihydropyridine-1(2H)-carboxamide] | 80.8 | 81.4 | 81.4 |  |  | inhibition at 25 µM [3]: 76.1%
7.28 | 7 | 7.10 | 5 | O=C(Nc1cccc(F)c1)N1CC=C(c2ncnc3[nH]c4c(c23)CSCC4)CC1 [Compound 154, N-(3-Fluorophenyl)-4-(5,7,8,9-tetrahydrothiopyrano[3′,4′:4,5]pyrrolo[2,3-d]pyrimidin-4-yl)-3,6-dihydropyridine-1(2H)-carboxamide] | 57.7 |  | 66.9 |  |  | 
 |  |  |  | O=C(Nc1cccc(Br)c1)N1CC=C(c2ncnc3[nH]c4c(c23)CSCC4)CC1 [Compound 156, N-(3-Bromophenyl)-4-(5,7,8,9-tetrahydrothiopyrano [3′,4′:4,5]pyrrolo[2,3-d]pyrimidin-4-yl)-3,6-dihydropyridine-1(2H)-carboxamide] |  |  |  | 15 | 3 | pKi (LIMK1): 7.38; inhibition at 25 µM [1, 10]: 61.6%; inhibition at 25 µM [2, 12]: 68.2%; pKi (LIMK2): 7.50
6.76 | -1 | 6.50 | 7 | O=C(Nc1cccc(F)c1)N1CC=C(c2ncnc3[nH]c4c(c23)COCC4)CC1 [Compound 157, N-(3-Fluorophenyl)-4-(5,7,8,9-tetrahydropyrano[3′,4′:4,5]pyrrolo[2,3-d]pyrimidin-4-yl)-3,6-dihydropyridine-1(2H)-carboxamide] | 56.5 | 79.5 | 79.5 |  |  | 
 |  |  |  | O=C(Nc1cccc(Br)c1)N1CC=C(c2ncnc3[nH]c4c(c23)COCC4)CC1 [Compound 159, N-(3-Bromophenyl)-4-(5,7,8,9-tetrahydropyrano[3′,4′:4,5]pyrrolo[2,3-d]pyrimidin-4-yl)-3,6-dihydropyridine-1(2H)-carboxamide] |  |  |  | 3 | 11 | pKi (LIMK1): 7.29; inhibition at 25 µM [1, 10]: 64.3%; inhibition at 25 µM [2, 12]: 70.3%; pKi (LIMK2): 7.29
7.92 | 36 | 8.02 | 43 | Cc1c[nH]c2ncnc(C3=CCN(C(=O)Nc4cccc(-c5cccc(OCCCNS(C)(=O)=O)c5)c4)CC3)c12 [Compound 175, N-[3-[3-[3-(methanesulfonamido)propoxy]phenyl]phenyl]-4-(5-methyl-7H-pyrrolo[2,3-d]pyrimidin-4-yl)-3,6-dihydro-2H-pyridine-1-carboxamide] |  |  | 98.1 |  |  | 
7.07 | 57 | 6.66 | 72 | Cc1c[nH]c2ncnc(C3=CCN(C(=O)Nc4cccc(OCC5CCC(F)(F)CC5)c4)CC3)c12 [Compound 191, N-(3-((4,4-difluorocyclohexyl)methoxy)phenyl)-4-(5-methyl-7H-pyrrolo[2,3-d]pyrimidin-4-yl)-3,6-dihydropyridine-1(2H)-carboxamide] |  | 87 |  |  |  | 
 |  |  |  | CC(C)C(=O)Nc1ncc(-c2cc(C(F)F)nn2-c2c(Cl)cccc2Cl)s1 [LIMKi3] |  |  |  |  |  | pEC50 (HeLa cells): 5.05
 |  |  |  | Cc1c[nH]c2ncnc(N3CCC(CN)(C(=O)Nc4cccc(OC(=O)N(C)C)c4)CC3)c12 [LX7101, reference compound] |  | 85.1 |  |  |  | pKi (LIMK1 and LIMK2): 8.41

SMILES | pKi (LIMK1; Lanthascreen Eu binding assay) | inhibition at 1 µM (ROCK2; [6]) [%] | pKi (LIMK2; Lanthascreen Eu binding assay) | inhibition at 1 µM (ROCK1; [9]) [%] | inhibition at 25 µM [1, 5] [%] | inhibition at 25 µM [2, 7] [%] | inhibition at 25 µM [2, 8] [%] | inhibition at 1 µM (ROCK2; [11]) [%] | inhibition at 1 µM (ROCK1; [14]) [%] | further results
O=C(Nc1cccc(F)c1)N1CC=C(c2ncnc3[nH]c4c(c23)CCC4)CC1 [Compound 110, N-(3-Fluorophenyl)-4-(5,6,7,8-tetrahydrocyclopenta[4,5]pyrrolo[2,3-d]pyrimidin-4-yl)-3,6-dihydropyridine-1(2H)-carboxamide] | 8.30 | 9 | 7.39 | 3 |  | 79 | 79 |  |  | later development of the disease phenotype and endpoint of the disease (survival) [4]: do not observed improvement; loss of weight [4]: significant effect on delaying; onset of motor symptoms (early Neuroscore stages and first time decay in the rotarod test) [4]: significant effect on delaying
O=C(Nc1cccc(Cl)c1)N1CC=C(c2ncnc3[nH]c4c(c23)CCCC4)CC1 [Compound 114, N-(3-Chlorophenyl)-4-(6,7,8,9-tetrahydro-5H-pyrimido[4,5-b]indol-4-yl)-3,6-dihydropyridine-1(2H)-carboxamide] | 8.00 |  | 7.59 |  | 74.7 | 89.3 | 89.3 | 8 | 4 | 
CN(C)C(=O)Oc1cccc(NC(=O)N2CC=C(c3ncnc4[nH]c5c(c34)CCC5)CC2)c1 [Compound 122, 3-(4-(5,6,7,8-Tetrahydrocyclopenta[4,5]pyrrolo[2,3-d]pyrimidin-4-yl)-1,2,3,6-tetrahydropyridine-1-carboxamido)phenyl dimethyl carbamate] | 8.15 |  | 8.40 |  |  |  |  |  |  | % inhibition (ROCK2) 1 uM (ROCK2): 14%; % inhibition Cofilin phosphorylation HeLa cells treated 2 h with 25 uM of inhibitor ([2]; HeLa cells, 25 uM): 81.3%; % inhibition of cofilin phosphorylation in HeLa cells (treatment 2 h, at 25 μM) [2, 15]: 81.3%; % inhibition Cofilin phosphorylation MPNST90-8 cells treated 2 h with 25 uM of inhibitor [3]: 65.6%; % inhibition (ROCK1) 1 uM (ROCK1): 4%
O=C(Nc1cccc(Cl)c1)N1CC=C(c2ncnc3[nH]c4c(c23)CSCC4)CC1 [Compound 155, N-(3-Chlorophenyl)-4-(5,7,8,9-tetrahydrothiopyrano [3′,4′:4,5]pyrrolo[2,3-d]pyrimidin-4-yl)-3,6-dihydropyridine-1(2H)-carboxamide] | 7.03 |  | 7.03 |  | 57.7 |  | 72.8 | 14 | 10 | 
O=C(Nc1cccc(Cl)c1)N1CC=C(c2ncnc3[nH]c4c(c23)COCC4)CC1 [Compound 158, N-(3-Chlorophenyl)-4-(5,7,8,9-tetrahydropyrano[3′,4′:4,5]pyrrolo[2,3-d]pyrimidin-4-yl)-3,6-dihydropyridine-1(2H)-carboxamide] | 7.18 |  | 7.03 |  | 59.8 |  | 65.3 | 1 | 2 | 
